Experimental data from ChEMBL document CHEMBL5104220, “Development of Gilteritinib-Based Chimeric Small Molecules that Potently Induce Degradation of FLT3-ITD Protein” (ACS Med Chem Lett, 2022).
pIC50: −log10 of the molar value. Each block holds one molecule with its values, some of them ahead of it. Activity calls are given as the source filed them. The rule behind the calls is not given here.

Experiments:
[1] = target: T1, Signal transducer and activator of transcription 5A (Homo sapiens) (UniProt P42229); assay: Inhibition of STAT5 phosphorylation in human MV4-11 cells at 0.03 to 3 uM incubated for 24 hrs by Western blot analysis; format: cell-based; conditions: dose 0.03-3 µM
T1 sequence (whole entry): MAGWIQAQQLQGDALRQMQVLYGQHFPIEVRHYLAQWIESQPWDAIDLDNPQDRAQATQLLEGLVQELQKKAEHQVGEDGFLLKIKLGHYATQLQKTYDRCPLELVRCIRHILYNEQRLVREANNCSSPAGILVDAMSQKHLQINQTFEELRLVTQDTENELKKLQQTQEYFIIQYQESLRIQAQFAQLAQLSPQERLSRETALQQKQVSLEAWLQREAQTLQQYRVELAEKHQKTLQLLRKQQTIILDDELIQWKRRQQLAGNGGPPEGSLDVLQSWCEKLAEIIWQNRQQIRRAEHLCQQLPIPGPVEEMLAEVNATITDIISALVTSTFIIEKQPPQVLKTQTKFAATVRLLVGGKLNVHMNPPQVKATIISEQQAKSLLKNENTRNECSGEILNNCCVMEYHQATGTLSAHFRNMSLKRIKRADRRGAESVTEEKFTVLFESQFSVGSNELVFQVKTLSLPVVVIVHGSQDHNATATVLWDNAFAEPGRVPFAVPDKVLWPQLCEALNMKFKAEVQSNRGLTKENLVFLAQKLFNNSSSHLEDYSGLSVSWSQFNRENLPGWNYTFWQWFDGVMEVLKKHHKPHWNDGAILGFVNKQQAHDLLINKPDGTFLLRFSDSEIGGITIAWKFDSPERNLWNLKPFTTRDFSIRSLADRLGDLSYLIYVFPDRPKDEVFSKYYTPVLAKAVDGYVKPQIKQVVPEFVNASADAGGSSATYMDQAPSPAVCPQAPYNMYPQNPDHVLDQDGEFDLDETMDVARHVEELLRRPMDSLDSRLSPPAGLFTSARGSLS

[2] = test system: Protein cereblon/Receptor-type tyrosine-protein kinase FLT3 (Homo sapiens), P36888+Q96SW2 [UNDEFINED MUTATION]; assay: PROTAC activity at CRBN/FLT3-ITD mutant in human MOLM-14 cells assessed as decrease in LTK protein expression by Western blot analysis; format: cell-based
[3] = test system: Protein cereblon/Receptor-type tyrosine-protein kinase FLT3 (Homo sapiens), P36888+Q96SW2 [UNDEFINED MUTATION]; assay: PROTAC activity at CRBN/FLT3-ITD mutant in human MV4-11 cells assessed as decrease in IKZF1 protein expression at 0.01 to 0.3 uM incubated for 24 hrs by Western blot analysis; format: cell-based; conditions: dose 0.01-0.3 µM
MV4-11 = assay: Antiproliferative activity against human MV4-11 cells harboring FLT3-ITD mutant assessed as inhibition of cell proliferation incubated for 72 hrs by WST-8 assay; format: functional, cell-based; conditions: MV4-11, 72 h
[4] = test system: Protein cereblon/Receptor-type tyrosine-protein kinase FLT3 (Homo sapiens), P36888+Q96SW2 [UNDEFINED MUTATION]; assay: PROTAC activity at CRBN/FLT3-ITD mutant in human MOLM-14 cells assessed as decrease in ALK protein expression by Western blot analysis; format: cell-based
[5] = test system: Protein cereblon/Receptor-type tyrosine-protein kinase FLT3 (Homo sapiens), P36888+Q96SW2 [UNDEFINED MUTATION]; assay: PROTAC activity at CRBN/FLT3-ITD mutant in human MOLM-14 cells assessed as decrease in FLT3 protein expression at 0.03 to 3 uM incubated for 24 hrs by Western blot analysis; format: cell-based; conditions: dose 0.03-3 µM
MOLM-14 = assay: Antiproliferative activity against human MOLM-14 cells harboring FLT3-ITD mutant assessed as inhibition of cell proliferation incubated for 72 hrs by WST-8 assay; format: functional, cell-based; conditions: MOLM-14, 72 h
[6] = test system: Protein cereblon/Receptor-type tyrosine-protein kinase FLT3 (Homo sapiens), P36888+Q96SW2 [UNDEFINED MUTATION]; assay: PROTAC activity at CRBN/FLT3-ITD mutant in human MV4-11 cells assessed as decrease in LTK protein expression by Western blot analysis; format: cell-based
[7] = test system: Protein cereblon/Receptor-type tyrosine-protein kinase FLT3 (Homo sapiens), P36888+Q96SW2 [UNDEFINED MUTATION]; assay: PROTAC activity at CRBN/FLT3-ITD mutant in human MV4-11 cells assessed as decrease in ALK protein expression by Western blot analysis; format: cell-based
[8] = test system: Protein cereblon/Receptor-type tyrosine-protein kinase FLT3 (Homo sapiens), P36888+Q96SW2 [UNDEFINED MUTATION]; assay: PROTAC activity at CRBN/FLT3-ITD mutant in human MV4-11 cells assessed as decrease in FLT3 protein expression at 0.3 to 3 uM incubated for 18 hrs in the presence of bafilomycin A1 by Western blot analysis; format: cell-based; conditions: dose 0.3-3 µM
[9] = test system: Protein cereblon/Receptor-type tyrosine-protein kinase FLT3 (Homo sapiens), P36888+Q96SW2 [UNDEFINED MUTATION]; assay: PROTAC activity at CRBN/FLT3-ITD mutant in human MOLM-14 cells assessed as decrease in FLT3 mRNA expression at 0.03 to 3 uM incubated for 24 hrs by RT-qPCR analysis; format: cell-based; conditions: dose 0.03-3 µM
[10] = test system: Protein cereblon/Receptor-type tyrosine-protein kinase FLT3 (Homo sapiens), P36888+Q96SW2 [UNDEFINED MUTATION]; assay: PROTAC activity at CRBN/FLT3-ITD mutant in human MV4-11 cells assessed as decrease in FLT3 protein expression at 0.03 to 3 uM incubated for 24 hrs by Western blot analysis; format: cell-based; conditions: dose 0.03-3 µM
[11] = test system: Protein cereblon/Receptor-type tyrosine-protein kinase FLT3 (Homo sapiens), P36888+Q96SW2 [UNDEFINED MUTATION]; assay: PROTAC activity at CRBN/FLT3-ITD mutant in human MV4-11 cells at 30 nM measured upto 32 hrs in the presence of cycloheximide by Western blot analysis; format: cell-based
[12] = test system: Protein cereblon/Receptor-type tyrosine-protein kinase FLT3 (Homo sapiens), P36888+Q96SW2 [UNDEFINED MUTATION]; assay: PROTAC activity at CRBN/FLT3-ITD mutant in human MOLM-14 cells assessed as decrease in IKZF1 protein expression at 0.01 to 0.3 uM incubated for 24 hrs by Western blot analysis; format: cell-based; conditions: dose 0.01-0.3 µM
[13] = test system: Protein cereblon/Receptor-type tyrosine-protein kinase FLT3 (Homo sapiens), P36888+Q96SW2 [UNDEFINED MUTATION]; assay: PROTAC activity at CRBN/FLT3-ITD mutant in human MV4-11 cells assessed as inhibition of FLT3 phosphorylation at 0.03 to 3 uM incubated for 24 hrs by Western blot analysis; format: cell-based; conditions: dose 0.03-3 µM
[14] = test system: Protein cereblon/Receptor-type tyrosine-protein kinase FLT3 (Homo sapiens), P36888+Q96SW2 [UNDEFINED MUTATION]; assay: PROTAC activity at CRBN/FLT3-ITD mutant in human MV4-11 cells assessed as inhibition of STAT5 phosphorylation at 0.03 to 3 uM incubated for 24 hrs by Western blot analysis; format: cell-based; conditions: dose 0.03-3 µM

Sequence of Protein cereblon/Receptor-type tyrosine-protein kinase FLT3 (Homo sapiens), P36888+Q96SW2 [UNDEFINED MUTATION] (P36888 whole entry, looked up, stated change not applied): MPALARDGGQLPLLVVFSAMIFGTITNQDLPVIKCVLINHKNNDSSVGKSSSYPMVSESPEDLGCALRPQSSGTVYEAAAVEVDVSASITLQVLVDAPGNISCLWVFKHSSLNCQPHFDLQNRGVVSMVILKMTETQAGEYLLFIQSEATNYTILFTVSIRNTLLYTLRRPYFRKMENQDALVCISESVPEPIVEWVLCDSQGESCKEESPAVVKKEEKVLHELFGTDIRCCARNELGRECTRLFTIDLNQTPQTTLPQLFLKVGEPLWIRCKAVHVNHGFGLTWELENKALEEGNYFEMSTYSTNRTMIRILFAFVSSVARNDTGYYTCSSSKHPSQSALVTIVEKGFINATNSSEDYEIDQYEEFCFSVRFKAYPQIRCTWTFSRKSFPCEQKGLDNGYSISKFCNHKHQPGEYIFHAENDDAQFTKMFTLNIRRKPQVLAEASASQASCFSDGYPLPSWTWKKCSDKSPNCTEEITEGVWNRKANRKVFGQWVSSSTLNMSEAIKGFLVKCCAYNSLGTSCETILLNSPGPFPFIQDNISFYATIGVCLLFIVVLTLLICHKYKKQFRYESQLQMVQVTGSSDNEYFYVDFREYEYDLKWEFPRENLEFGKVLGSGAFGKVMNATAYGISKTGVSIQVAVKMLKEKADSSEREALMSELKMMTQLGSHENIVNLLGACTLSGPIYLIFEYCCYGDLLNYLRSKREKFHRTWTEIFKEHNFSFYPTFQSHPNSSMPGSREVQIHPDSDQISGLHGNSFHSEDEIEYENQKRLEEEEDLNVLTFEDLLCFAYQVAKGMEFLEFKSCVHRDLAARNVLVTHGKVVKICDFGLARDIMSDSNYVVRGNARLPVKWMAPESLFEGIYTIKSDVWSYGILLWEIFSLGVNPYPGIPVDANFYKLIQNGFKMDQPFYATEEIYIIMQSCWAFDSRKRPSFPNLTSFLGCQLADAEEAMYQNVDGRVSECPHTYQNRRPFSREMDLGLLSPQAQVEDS
Sequence of Protein cereblon/Receptor-type tyrosine-protein kinase FLT3 (Homo sapiens), P36888+Q96SW2 [UNDEFINED MUTATION] (Q96SW2 whole entry, looked up, stated change not applied): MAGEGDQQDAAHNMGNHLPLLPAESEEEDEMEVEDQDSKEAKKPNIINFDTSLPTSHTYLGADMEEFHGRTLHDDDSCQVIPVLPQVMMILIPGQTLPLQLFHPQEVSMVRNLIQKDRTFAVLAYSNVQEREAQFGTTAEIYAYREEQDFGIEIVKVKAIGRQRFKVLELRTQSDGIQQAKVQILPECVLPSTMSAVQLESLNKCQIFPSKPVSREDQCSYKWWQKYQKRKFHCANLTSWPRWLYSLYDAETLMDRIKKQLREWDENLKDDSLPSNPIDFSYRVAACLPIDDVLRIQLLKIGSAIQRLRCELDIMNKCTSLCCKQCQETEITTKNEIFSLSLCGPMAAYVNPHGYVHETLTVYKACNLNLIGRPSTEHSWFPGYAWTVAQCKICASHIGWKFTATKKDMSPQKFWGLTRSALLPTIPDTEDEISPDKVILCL

- inhibition [1]: Active
Structure (SMILES): CC(C)(C)c1cc(NC(=O)Nc2ccc(-c3cn4c(n3)sc3cc(OCCN5CCOCC5)ccc34)cc2)no1

- inhibition [1]: Active
Structure (SMILES): CCc1nc(C(N)=O)c(Nc2ccc(N3CCC(N4CCN(C)CC4)CC3)c(OC)c2)nc1NC1CCOCC1

Structure (SMILES): CCc1nc(C(N)=O)c(Nc2ccc(N3CCC(N4CCN(CC5CCN(C(=O)CCOCCOCCNc6cccc7c6C(=O)N(C6CCC(=O)NC6=O)C7=O)CC5)CC4)CC3)c(OC)c2)nc1NC1CCOCC1 (stereo unspecified)
- Activity [2]: Active
- Activity [3]: Active
- pIC50 (MV4-11): 9.05
- Activity [4]: Active
- Activity [5]: Active
- pIC50 (MOLM-14): 8.55
- Activity [6]: Active
- Activity [7]: Active
- Activity [8]: Active
- Activity [9]: Active
- Activity [10]: Active
- Activity [11]: Active
- Activity [12]: Active

- inhibition [1]: Active
Structure (SMILES): CC1(COc2ccc3c(c2)ncn3-c2ccc3cccc(N4CCC(N)CC4)c3n2)COC1

Structure (SMILES): CCc1nc(C(N)=O)c(Nc2ccc(N3CCC(N4CCN(CC5CCN(C(=O)CCOCCOCCOCCOCCNc6cccc7c6C(=O)N(C6CCC(=O)NC6=O)C7=O)CC5)CC4)CC3)c(OC)c2)nc1NC1CCOCC1 (stereo unspecified)
- Activity [13]: Active
- Activity [5]: Active
- Activity [14]: Active
- Activity [10]: Active

- inhibition [1]: Active
Structure (SMILES): CNC(=O)c1cc(Oc2ccc(NC(=O)Nc3ccc(Cl)c(C(F)(F)F)c3)cc2)ccn1
